35 compounds from PubChem BioAssay AID488792 (NMMLSC, 2010) can be followed below.

SMILES strings stand for the structures. Activity calls are given as the source filed them.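 Rule for the calls: active = EC50 at or below 33 microM; inactive = the rest.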

This test deals with S. cerevisiae AGP1-GFP strain, flow cytometry fluorescence, 3 h. In words: potency of screening hits on AGP1-GFP expression, SAR follow-up, cell-based, flow cytometry, S. cerevisiae (AID 488792).

In general, EC50 refers to the concentration that produces a half-maximal response.

Consider `O=[N+]([O-])c1ccc(O)c2ncccc12`, for which the EC50 is 5.98 µM. To `O=[N+]([O-])c1cc(O)c2ncccc2c1` belongs 34.3 µM (inactive). For the compound `Cc1cc(C(=O)Nc2nc(-c3ccccn3)cs2)ccc1[N+](=O)[O-]`, the EC50 is 57.5 µM (inactive).

With `CC(C)(C)C(=O)C(Cl)C(=O)Nc1ccccc1` (stereo not given), the EC50 is 2.09 µM. To `C/C(=N\NC(=O)c1cccc(Br)c1)c1ccccn1` belongs 34.1 µM (inactive); to `CN1CCN(C(=O)c2cc(COc3c(F)cccc3F)on2)CC1c1ccccc1` (stereo not given), 14.1 µM. The same measure for `O=C(c1ccc(C(=O)N2CCCc3ccccc32)s1)N1CCCc2ccccc21`: 0.46 µM; for `CC(C)(C)C(=O)NC(=S)NNC(=O)c1ccc(-c2ccccc2)cc1`: 34.5 µM (inactive).

Take `CCOC(=O)CS(=O)(=O)c1nc(-c2ccccc2)cc(C(F)(F)F)n1`: the EC50 was 1.74 µM. To `O=C(Nc1nc(-c2ccccn2)cs1)C1COc2ccccc2O1` (stereo not given) belongs 72.9 µM (inactive); to `O=C(OCn1ncc(Br)c(Br)c1=O)c1c(F)cccc1F`, 2.44 µM. To `CC(=O)SC(C[N+](=O)[O-])c1cn(C(C)=O)c2ccccc12` (stereo not given) belongs 60.4 µM (inactive); to `CC(=O)Nc1ncnc2c1c(-c1ccc(Cl)cc1)nn2C(C)(C)C`, 137 µM (inactive); to `COC(=O)CCS(=O)(=O)c1nc(-c2ccccc2)cc(C(F)(F)F)n1`, 0.3 µM. The same measure for `Cc1ccc(-c2nn(C(C)(C)C)c3ncnc(N)c23)cc1`: 300 µM (inactive); for `CNc1nc(N)c([N+](=O)[O-])c(Nc2cccc(F)c2)n1`: 10.7 µM. `CC(C)(C)n1nc(-c2ccc(F)cc2)c2c(N)ncnc21`: the EC50 is 174 µM (inactive).

Regarding `O=[N+]([O-])c1cc(Cl)c2cccnc2c1O`, the EC50 is 62 µM (inactive). To `CCOC(=O)CCS(=O)(=O)c1nc(-c2ccccc2)cc(C(F)(F)F)n1` belongs 1.41 µM. To `Nc1cc(Oc2cccc(Cl)c2)nc(NCc2ccccc2)n1` belongs 263 µM (inactive); to `CC(C)(C)n1nc(-c2ccc(Cl)cc2)c2c(N)ncnc21`, 10.8 µM; to `Nc1nc(Nc2ccccc2)nc(Nc2cccc(F)c2)c1[N+](=O)[O-]`, 140 µM (inactive). The same measure for `O=C(OCC(=O)N1CCN(C(=O)c2ccco2)CC1)c1cc(-c2ccc(F)cc2)nc2ccccc12`: 1.25 µM. Turning to `Cc1ccc(S(=O)(=O)c2ccc([N+](=O)[O-])cn2)cc1`, the EC50 is 4.42 µM. The same measure for `Cc1ccc(C(c2cc(Cl)c3cccnc3c2O)N2CCN(C)CC2)cc1` (stereo not given): 98.6 µM (inactive). The same measure for `COc1cccc(Nc2nc(N)c([N+](=O)[O-])c(Nc3cccc(F)c3)n2)c1`: 35 µM (inactive); for `CCC(C)Nc1nc(N)c([N+](=O)[O-])c(Nc2cccc(F)c2)n1` (stereo not given): 63.1 µM (inactive); for `Cc1ccc2nc(Cl)c3nnnn3c2c1`: 0.24 µM.

Turning to `Cn1ncc(S(=O)(=O)Cc2ccccc2)c(Cl)c1=O`, the EC50 is 105 µM (inactive). Regarding `O=C(OCC(=O)N1CCN(C(=O)c2ccco2)CC1)c1cc(-c2cccc(Br)c2)nc2ccccc12`, the EC50 is 36.5 µM (inactive). To `CC(Oc1ccc(Br)cc1)C(=O)Nc1nc(-c2ccccn2)cs1` (stereo not given) belongs 102 µM (inactive); to `Nc1nc(Nc2cccc(Cl)c2)nc(Nc2cccc(F)c2)c1[N+](=O)[O-]`, 312 µM (inactive); to `O=C(Oc1c(Cl)cc(Cl)c2cccnc12)c1cccc([N+](=O)[O-])c1`, 34.8 µM (inactive). The same measure for `CC(=O)c1ccc(N2CCN(C(=O)c3ccc(Br)cc3)CC2)c(F)c1`: 4.22 µM; for `CCN(CC)C(=O)Oc1ccnc2cc(Cl)ccc12`: 32.2 µM.
